Columns and labels:
human fibroblasts = test: Episome-based reprogramming of human fibroblasts, AP+ / iPSC-like colonies; assay type: cell-based
Description: O4I3 was applied in commercially available episome-based reprogramming cocktail containing episomal vectors for overexpression of Oct4, Sox2, Klf4, Lin28 and L-Myc, as well as suppression of p53. In comparison to non-treated fibroblast cultures, 20 times more alkaline phosphatase (AP) positive colonies were detected in the presence of O4I3 at a concentration of 50 nM in two tested human primary fibroblasts (HF1 and HF2) (FIG. 13).
It is known in the art that senescence or other unknown factors can confer donor fibroblasts resistance to reprogramming. Therefore, O4I3 was tested for its ability to enable reprogramming of refractory fibroblasts. Two human fibroblasts were selected. HFF-LTR7-EGFP at passage >40 carrying EGFP driven by a LTR7 promoter, which was activated during reprogramming, and HF5, isolated from a patient sample, both of which were resistant to an episome-based reprogramming approach (FIG. 13).
Epi5® Episomal iPSC Reprogramming Kit (Life technologies) was used to reprogram human fibroblasts according to the manufacturer's protocol. Briefly, 5,000-50,000 cells were seeded in a 24-well plate for 24 h and then transfected with episomal vectors in N2 B27 medium. After 14 days, cells were re-suspended with 0.5 mM EDTA and re-plated in a 6-well plate in Essential®8 medium. Colonies were isolated after 3-4 weeks with the help of alkaline phosphatase (AP) live stain (Life technologies). Medium was refreshed daily.

methylated H3K4 = test: In vitro H3K4 methylation assay (Epiquik histone demethylase H3K4 specific kit); assay type: biochemical; details: in vitro methylation assay; read-out: IC50, protection of methylated H3K4
Description: (§1) Epiquik histone demethylase (H3K4 specific) activity/inhibition assay kit (Epigentek, Biocat, Germany) was used to measure the protective effect of O4I3 and zolpidem on the methylation of H3K4. Their inhibitory effects on LSD1, KDM5s, and KDM4 were determined using Epigenase jarid demethylase activity/inhibition assay kit, Epigenase JMJD2 demethylase activity/inhibition assay kit and EpiQuik histone demethylase LSD1 activity/inhibition assay kit (Epigentek, Biocat, Germany). The total nuclear extraction was used according to manufacturer's instructions. For measuring KDM5A, KDM5B, KDM5C, and KDM5D activity, magnetic beads were used to immunoprecipitate the respective enzymes from 10^8 cells according to the manufacturer's instructions (Cell Signaling Technologies).

KDM4 [1] = test: KDM4 (JMJD2) demethylase inhibition, nuclear extraction; assay type: biochemical
From the text: (§2) HMT and HDM are two major classes of enzymes, contributing to the regulation of histone methylation. Lysine-specific demethylase 1 (LSD1) and histone lysine demethylase 5 (KDM5, also known as JARID1) majorly catalyze demethylation of H3K4. A few KDM5 chemical inhibitors have been reported to inhibit demethylation of H3K4, leading to an increase of global methylated H3K4 in various cell types. The inventors tested the inhibitory effect of O4I3 on LSD1 and KDM5. KDM4 (also known as JMJD2), the HDM of H3K9 and H3K36, was also included.
as §1

KDM4 [2] = target: T1, KDM4; test: as above; assay type: biochemical; details: whole-cell nuclear extraction
T1 construct: other: whole-cell nuclear extraction; other: micromolar concentrations
From the text: as §2, §1

H3K4Me3 = test: Global H3K4Me3 level in fibroblasts (immunocytochemistry, immunoblotting); assay type: cell-based, human
From the text: The inventors investigated the transfection efficiency in HF1 and HF4 using the same episomal vector carrying cytomegalovirus (CMV)-driven GFP. The inventors could not observe a significant difference between two cell lines, as determined by FACS analysis. […] To study the epigenetic effects of O4I3 and its relevance to reprogramming, the inventors focused on two histone modifications at the promoter of OCT4, namely, H3K4Me3, known to be related to gene activation, and H3K27Me3, which indicates gene repression. […] The level of H3K27Me3 at the OCT4 promoter was minimally affected in our experiments (FIG. 17C). […] Immunoblotting confirmed a dose- and time-dependent increase of global H3K4Me3 expression in fibroblast, whereas H3K27Me3 remained mostly unaffected (FIG. 17E). In an in vitro methylation assay, O4I3 protected methylated H3K4 with an […] value of 20 nM (FIG. 17F). Trimethylation of H3K9 has been reported to block reprogramming by recruiting heterochromatin protein 1 to form heterochromatin at the core of pluripotency loci, which interferes with the hypermethylation of H3K4. […]
Fibroblasts were treated with O4I3 0.5 μM for 2 days in the presence/absence of reprogramming transcription factors. […] The signal intensity was analyzed using ImageJ software as single cell level randomly selected from at least three independent experiments.

iPSCs = test: qRT-PCR gene expression in iPSCs; assay type: cell-based, human; details: 50 nM, 24 h
Description: A) O4I3 promoted the viability of hiPSCs in single cell expansion. B) Homogeneous expression of […] and Oct4 up to passage (p) 30 in hiPSCs treated with 50 nM O4I3 analyzed by FACS C) Relative fold changes to non-treatment in hiPSCs treated with O4I3 (50 nM) for 24 h analyzed by qRT-PCR. D) Gene expression profiling analysis of functional annotation enrichment for categories related to pluripotency, development and homeostasis in O4I3-treated iPSCs for 24 h. Data are represented as mean±SD from at least 3 independent experiments ***: p<0.001; **: p<0.01; *: p<0.05.
Quantitative reverse-transcription real-time-PCR was performed using a Light Cycler 96 (Roche, Germany) following the manufacturer's protocol. Briefly, total RNA was isolated from cells using TRIzol (Qiagen, Germany) or NucleoSpin®RNA Plus (Macherey-Nagel, Germany). The same amount of RNA was used to reverse-transcriptional synthesize cDNA by using random primers ProtoScript® First Strand cDNA Synthesis Kit (NEB, Germany). qPCR was performed using the SYBR Green PCR master mix (qPCRBIO SyGreen Mix Lo-Rox, Nippon Genetics, Germany) and the primer pairs indicated below (MWG, Eurofins, Germany). Actin was used as an endogenous control. Data were normalized to the value of untreated cells showing the mean±SD of quadruplicates and are representative of at least three independent experiments.

Oct4 = test: Luciferase reporter assay in NCCIT-Oct4 cells; assay type: cell-based, human; details: O4I3 1 nM, a 10,000-fold lower concentration; both reporter cell lines

With `Cc1ccc(-c2cn3cc(C)ccc3n2)cc1` [O4I3, 6-methyl-2-(p-tolyl)imidazo[1,2-a]pyridine] the “alkaline phosphatase (AP) positive colonies in comparison to non-treated fibroblast cultures” value (human fibroblasts; 50 nM, HF1 and HF2) was 20 times, the “reprogramming of resistant fibroblasts” value (human fibroblasts; 500 Nm, HFF-LTR7-EGFP and HF5) was “appearance of iPSC-like colonies” and the IC50 (methylated H3K4) was 20 nM. For the same molecule, the “less potency on KDM4 than on KDM5” value (KDM4 [1]) was 500 fold, the IC50 (KDM4 [2]) was 249 nM and the “global level of H3K4Me3” value (H3K4Me3) was “increase of H3K4Me3”. The “expression of pluripotency-associated genes” value (iPSCs) was “stabilized or slightly increased” and the “induction versus zolpidem at 10 μM” value (Oct4) was “comparable induction”.

Source: patent US20200062719A1, “Application of Imidazopyridine Derivatives in Regenerative Medicine” (University of Heidelberg, priority 2018, published 2020)
